Assay results as given in patent US8927500B2, “Peptidomimetic macrocycles” (Aileron Therapeutics, Inc., priority 2012, dated 2015).
Where two headings read alike, the source gives them in different places. Where a SMILES comes first, the peptide text is derived from it. Bridges are numbered along the chain shown (N, C = ends). [ ]: non-standard residue; d: D form. 2Nal = N[C@@H](Cc1ccc2ccccc2c1)C(=O)O; R8 = C=CCCCCCC[C@@](C)(N)C(=O)O; Cba = N[C@@H](CC1CCC1)C(=O)O; S5 = C=CCCC[C@](C)(N)C(=O)O

Columns and labels:
[1] = system: SJSA-1 cells; assay: Cell lysis by peptidomimetic macrocycles (LDH release); type: cell-based; conditions: 1 h at 37C
[2] = target: T1, MDMX (Homo sapiens, UniProt O15151); assay: Competitive fluorescence polarization assay for MDMX; type: binding; conditions: competitive FP assay; for IC50: read-out: IC50 (MDMX); for Ki: read-out: Ki (MDMX)
T1 sequence (O15151 1-125): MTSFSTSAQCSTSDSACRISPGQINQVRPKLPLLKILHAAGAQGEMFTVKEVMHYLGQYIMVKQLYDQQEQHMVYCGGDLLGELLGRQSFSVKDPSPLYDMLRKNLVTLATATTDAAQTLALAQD

[3] = system: Caspase 3; assay: Caspase 3 detection assay in SJSA1 cells; type: cell-based; conditions: 48 h, Caspase 3 activation over DMSO-treated cells; for caspase 0.3 uM: 0.3 uM peptide; for caspase 3 uM: 3 uM peptide; for caspase 10 uM: 10 uM peptide; for caspase 30 uM: 30 uM peptide; for caspase 1 uM: 1 uM peptide
[4] = target: MDM2 (Homo sapiens, UniProt Q00987); assay: Competitive fluorescence polarization assay for MDM2; type: binding; conditions: competitive FP assay, MDM2
Sequence of MDM2 (Q00987 1-125): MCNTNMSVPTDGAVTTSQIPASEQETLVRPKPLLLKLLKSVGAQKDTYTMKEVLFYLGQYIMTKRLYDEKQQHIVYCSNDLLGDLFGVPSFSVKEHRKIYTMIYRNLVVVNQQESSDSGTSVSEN
Description: Dilute 1 mM (in 100% DMSO) of FAM labeled linear peptide with DMSO to 100 μM (dilution 1:10). Then, dilute from 100 μM to 10 μM with water (dilution 1:10) and then dilute with FP buffer from 10 μM to 40 nM (dilution 1:250). This is the working solution which will be a 10 nM concentration in well (dilution 1:4). […] Then, dilute from 5 mM to 500 μM with H2O (dilution 1:10) and then dilute with FP buffer from 500 μM to 20 μM (dilution 1:25).
Dilute 1 mM (in 100% DMSO) of FAM labeled linear peptide with DMSO to 100 μM (dilution 1:10). Then, dilute from 100 μM to 10 μM with water (dilution 1:10) and then dilute with FP buffer from 10 μM to 40 nM (dilution 1:250). This is the working solution which will be a 10 nM concentration in well (dilution 1:4). […] Dilute 10 mM (in 100% DMSO) with DMSO to 5 mM (dilution 1:2). Then, dilute from 5 mM to 500 μM with H2O (dilution 1:10) and then dilute with FP buffer from 500 μM to 20 μM (dilution 1:25). […] Transfer 10 μl of serial diluted unlabeled peptides to each well which is filled with 20 μl of 300 nM of protein. • 7. Add 10 μl of 10 nM (4×) of FAM labeled peptide into each well and incubate for 3 hr to read.

IC50 [2]	Ki [2]	IC50 ([4]; read-out: IC50 (MDM2))	Ki ([4]; read-out: Ki (MDM2))	Compound	6.25 uM % Lysed cells (1 h LDH) [1]	25 uM % Lysed cells (1 h LDH) [1]	50 uM % Lysed cells (1 h LDH) [1]	caspase 0.3 uM [3]	caspase 3 uM [3]	caspase 10 uM [3]	caspase 30 uM [3]	caspase 1 uM [3]	IC50 ([4]; IC50 (MDM2))	Ki ([4]; Ki (MDM2))
100 to 1000 nM	10 to 100 nM	10 to 100 nM	< 10 nM	CC(=O)N[C@@H](CC(C)C)C(=O)N[C@H](C(=O)N[C@@H](Cc1ccccc1)C(=O)N[C@]1(C)CCCCCCC=CCCC[C@@](C)(C(=O)N[C@@H](CO)C(=O)NC(C)(C)C(=O)N[C@@H](C)C(=O)N[C@@H](C)C(N)=O)NC(=O)[C@H](CC(C)C)NC(=O)[C@H](CCC(N)=O)NC(=O)[C@H](C)NC(=O)[C@H](Cc2c[nH]c3ccccc23)NC(=O)[C@H](Cc2ccc(O)cc2)NC(=O)[C@H](C)NC1=O)[C@@H](C)O (single isomer, unassigned) [compound 26]	2%	−1%	0%	1	1	3	14			
100 to 1000 nM	10 to 100 nM			CC(=O)N[C@@H](CC(C)C)C(=O)N[C@H](C(=O)N[C@@H](Cc1ccccc1)C(=O)N[C@]1(C)CCCCCCC=CCCC[C@@](C)(C(=O)N[C@@H](CO)C(=O)N[C@@H](C)C(=O)N[C@@H](C)C(N)=O)NC(=O)[C@H](CC2CCCCC2)NC(=O)[C@H](CCC(N)=O)NC(=O)[C@H](C)NC(=O)[C@H](Cc2c[nH]c3ccccc23)NC(=O)[C@H](Cc2ccc(O)cc2)NC(=O)[C@H](CCC(=O)O)NC1=O)[C@@H](C)O (single isomer, unassigned) [compound 148]	0%	−1%	0%	1	11	23	31			
				CC(=O)N[C@@H](CC(C)C)C(=O)N[C@H](C(=O)N[C@@H](Cc1ccccc1)C(=O)N[C@]1(C)CCCCCCC=CCCC[C@@](C)(C(=O)N[C@@H](C)C(=O)N[C@@H](C)C(=O)N[C@@H](C)C(=O)N[C@@H](C)C(=O)N[C@@H](C)C(=O)N[C@@H](C)C(=O)N[C@H](C)C(N)=O)NC(=O)[C@H](CC(C)C)NC(=O)[C@H](CCC(N)=O)NC(=O)[C@H](C)NC(=O)[C@H](Cc2c[nH]c3ccccc23)NC(=O)[C@H](Cc2ccc(O)cc2)NC(=O)[C@H](C)NC1=O)[C@@H](C)O (single isomer, unassigned) [compound 316]	0%	0%	1%	6.5	21	32	32.5	10.5	< 10 nM	< 10 nM
				CC(=O)N[C@@H](CC(C)C)C(=O)N[C@H](C(=O)N[C@@H](Cc1ccccc1)C(=O)N[C@]1(C)CCCCCCC=CCCC[C@@](C)(C(=O)N[C@@H](C)C(=O)N[C@@H](C)C(=O)N[C@@H](C)C(=O)N[C@@H](C)C(=O)N[C@@H](C)C(=O)N[C@@H](C)C(=O)N[C@H](C)C(N)=O)NC(=O)[C@H](CC(C)C)NC(=O)[C@H](CCC(N)=O)NC(=O)[C@H](C)NC(=O)[C@H](Cc2c[nH]c3ccccc23)NC(=O)[C@H](Cc2ccc(O)cc2)NC(=O)[C@H](C)NC1=O)[C@@H](C)O (single isomer, unassigned) [compound 317]	0%	0%	0%	3	9	26	35	4	10 to 100 nM	10 to 100 nM
				CC(=O)N[C@@H](CC(C)C)C(=O)N[C@H](C(=O)N[C@@H](Cc1ccccc1)C(=O)N[C@]1(C)CCCCCCC=CCCC[C@@](C)(C(=O)N[C@@H](C)C(=O)N[C@@H](C)C(=O)N[C@@H](C)C(=O)N[C@@H](C)C(=O)N[C@@H](C)C(=O)N[C@H](C)C(N)=O)NC(=O)[C@H](CC(C)C)NC(=O)[C@H](CCC(N)=O)NC(=O)[C@H](C)NC(=O)[C@H](Cc2c[nH]c3cc(Cl)ccc23)NC(=O)[C@H](Cc2ccc(O)cc2)NC(=O)[C@H](C)NC1=O)[C@@H](C)O (single isomer, unassigned) [compound 338]	0%	0%	1%	1	23	20	29	5		
10 to 100 nM	< 10 nM			CC(=O)N[C@@H](CC(C)C)C(=O)N[C@H](C(=O)N[C@@H](Cc1ccccc1)C(=O)N[C@]1(C)CCCCCCC=CCCC[C@@](C)(C(=O)N[C@@H](CO)C(=O)N[C@@H](C)C(=O)N[C@@H](C)C(=O)N[C@H](C)C(N)=O)NC(=O)[C@H](CC2CCC2)NC(=O)[C@H](CCC(N)=O)NC(=O)[C@H](C)NC(=O)[C@H](Cc2c[nH]c3ccccc23)NC(=O)[C@H](Cc2ccc(O)cc2)NC(=O)[C@H](CCC(=O)O)NC1=O)[C@@H](C)O (single isomer, unassigned) [compound 353]	0%	0%	0%	1	5	7	30	2		
				CSCC[C@H](NC(=O)[C@H](C)NC(=O)[C@H](C)NC(=O)[C@]1(C)CCCC=CCCCCCC[C@@](C)(NC(=O)[C@H](Cc2ccccc2)NC(=O)[C@@H](NC(=O)[C@H](CC(C)C)NC(C)=O)[C@@H](C)O)C(=O)N[C@@H](C)C(=O)N[C@@H](Cc2ccc(O)cc2)C(=O)N[C@@H](Cc2c[nH]c3ccccc23)C(=O)N[C@@H](C)C(=O)N[C@@H](C)C(=O)N[C@@H](CC(C)C)C(=O)N1)C(=O)N[C@H](C)C(N)=O [compound 72] (Ac-LTF[R8]AYWAAL[S5]AAM[dA]-NH2; staple 4-11)	2%	0%	3%	1	1	4	10			
				CC(=O)N[C@@H](CC(C)C)C(=O)N[C@H](C(=O)N[C@@H](Cc1ccc(F)c(F)c1)C(=O)N[C@]1(C)CCCCCC/C=C/CCC[C@@](C)(C(=O)N[C@@H](CO)C(=O)N[C@@H](C)C(=O)N[C@@H](C)C(N)=O)NC(=O)[C@H](CCC(C)C)NC(=O)[C@H](CCC(N)=O)NC(=O)[C@H](C)NC(=O)[C@H](Cc2c[nH]c3ccccc23)NC(=O)[C@H](Cc2ccc(O)cc2)NC(=O)[C@H](CCC(=O)O)NC1=O)[C@@H](C)O [compound 160]	−1%	−1%	1%	2	10	16	31			
				CC(=O)N[C@@H](CC(C)C)C(=O)N[C@H](C(=O)N[C@@H](Cc1ccccc1)C(=O)N[C@]1(C)CCCCCCC=CCCC[C@@](C)(C(=O)N[C@@H](C)C(=O)N[C@@H](Cc2c[nH]cn2)C(=O)N[C@@H](Cc2ccccc2)C(=O)N[C@@H](C)C(N)=O)NC(=O)[C@H](CC(C)C)NC(=O)[C@H](CCC(N)=O)NC(=O)[C@H](C)NC(=O)[C@H](Cc2c[nH]c3ccccc23)NC(=O)[C@H](Cc2c[nH]cn2)NC(=O)[C@H](C)NC1=O)[C@@H](C)O [compound 183] (Ac-LTF[R8]AHWAQL[S5]AHFA-NH2; staple 4-11)	2%	0%	3%	1	1	4	8			
100 to 1000 nM	10 to 100 nM			CC(=O)N[C@@H](CC(C)C)C(=O)N[C@H](C(=O)N[C@@H](Cc1ccccc1)C(=O)N[C@]1(C)CCCCCCC=CCCC[C@@](C)(C(=O)N[C@@H](CO)C(=O)N[C@@H](C)C(=O)N[C@@H](C)C(N)=O)NC(=O)[C@H](CC2CCC2)NC(=O)[C@H](CCC(N)=O)NC(=O)[C@H](C)NC(=O)[C@H](Cc2ccc3ccccc3c2)NC(=O)[C@H](Cc2ccc(O)cc2)NC(=O)[C@H](CCC(=O)O)NC1=O)[C@@H](C)O [compound 254] (Ac-LTF[R8]EY[2Nal]AQ[Cba][S5]SAA-NH2; staple 4-11)	11%	60%	75%	1	7	14	22	3		
				CC(=O)N[C@@H](CC(C)C)C(=O)N[C@H](C(=O)N[C@@H](Cc1ccccc1)C(=O)N[C@]1(C)CCCCCC/C=C/CCC[C@@](C)(C(=O)N[C@@H](C)C(=O)N[C@@H](C)C(=O)N[C@@H](C)C(=O)N[C@@H](C)C(=O)N[C@@H](C)C(=O)N[C@H](C)C(N)=O)NC(=O)[C@H](CC(C)C)NC(=O)[C@H](CCC(N)=O)NC(=O)[C@H](C)NC(=O)[C@H](Cc2c[nH]c3ccccc23)NC(=O)[C@H](Cc2ccc(O)cc2)NC(=O)[C@H](CCC(=O)O)NC1=O)[C@@H](C)O [compound 331] (Ac-LTF[R8]EYWAQL[S5]AAAAA[dA]-NH2; staple (E) 4-11)	0%	0%	0%	4.5	11	14.5	30.5	8		
